# Data taken from ChEMBL document CHEMBL1134975, “3-Hydroxy-4-methyl-5-pentyl-2-iminopyrrolidine: a potent and highly selective inducible nitric oxide synthase inhibitor” (Bioorg Med Chem Lett, 2002).
# pIC50: −log10 of the molar value.
# Legend:
# [1] = molecular target: Nitric oxide synthase, inducible (Homo sapiens, UniProt P35228); test: Inhibitory concentration against Inducible nitric oxide synthase (iNOS)
# [2] = molecular target: T1, Nitric oxide synthase 3 (Homo sapiens, UniProt P29474); test: Inhibitory concentration against Endothelial nitric oxide synthase
# T1 sequence (P29474 whole entry): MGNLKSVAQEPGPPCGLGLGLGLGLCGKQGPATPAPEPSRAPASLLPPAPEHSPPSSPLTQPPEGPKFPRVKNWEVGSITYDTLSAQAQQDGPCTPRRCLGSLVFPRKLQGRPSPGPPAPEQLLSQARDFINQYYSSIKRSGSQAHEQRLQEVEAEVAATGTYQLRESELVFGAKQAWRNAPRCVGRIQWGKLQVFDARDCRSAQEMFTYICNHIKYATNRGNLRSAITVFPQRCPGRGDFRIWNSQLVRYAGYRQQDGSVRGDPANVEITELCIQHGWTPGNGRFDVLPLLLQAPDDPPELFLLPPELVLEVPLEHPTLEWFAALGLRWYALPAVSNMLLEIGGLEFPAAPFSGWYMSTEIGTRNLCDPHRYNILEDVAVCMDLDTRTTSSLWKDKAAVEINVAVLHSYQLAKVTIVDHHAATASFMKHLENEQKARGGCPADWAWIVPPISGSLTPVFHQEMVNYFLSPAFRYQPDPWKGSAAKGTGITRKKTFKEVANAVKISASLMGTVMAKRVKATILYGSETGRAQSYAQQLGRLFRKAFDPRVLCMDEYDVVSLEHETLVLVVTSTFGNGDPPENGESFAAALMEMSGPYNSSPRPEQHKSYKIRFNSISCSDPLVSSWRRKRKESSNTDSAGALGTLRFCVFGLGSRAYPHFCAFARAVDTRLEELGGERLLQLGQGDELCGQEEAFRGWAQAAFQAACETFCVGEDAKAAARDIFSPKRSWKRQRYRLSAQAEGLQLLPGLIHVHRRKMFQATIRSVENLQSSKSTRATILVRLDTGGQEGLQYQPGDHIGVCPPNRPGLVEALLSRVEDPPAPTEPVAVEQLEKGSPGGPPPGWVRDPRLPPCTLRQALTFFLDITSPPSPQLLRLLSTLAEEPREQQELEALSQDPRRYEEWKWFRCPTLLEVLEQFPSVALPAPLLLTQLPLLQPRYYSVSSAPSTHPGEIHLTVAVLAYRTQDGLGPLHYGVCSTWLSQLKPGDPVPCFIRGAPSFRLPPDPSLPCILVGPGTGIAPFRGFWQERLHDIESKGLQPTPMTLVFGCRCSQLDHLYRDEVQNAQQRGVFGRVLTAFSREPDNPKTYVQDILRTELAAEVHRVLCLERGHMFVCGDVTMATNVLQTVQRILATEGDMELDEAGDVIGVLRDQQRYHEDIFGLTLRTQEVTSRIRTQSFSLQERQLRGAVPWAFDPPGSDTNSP
# [3] = molecular target: Nitric oxide synthase 1 (Homo sapiens, UniProt P29475); test: Inhibitory concentration against Neuronal nitric oxide synthase
# [4] = molecular target: T1, Nitric oxide synthase 3; test: Inhibitory activity against Endothelial nitric oxide synthase
# Chain of Nitric oxide synthase, inducible (P35228 whole entry): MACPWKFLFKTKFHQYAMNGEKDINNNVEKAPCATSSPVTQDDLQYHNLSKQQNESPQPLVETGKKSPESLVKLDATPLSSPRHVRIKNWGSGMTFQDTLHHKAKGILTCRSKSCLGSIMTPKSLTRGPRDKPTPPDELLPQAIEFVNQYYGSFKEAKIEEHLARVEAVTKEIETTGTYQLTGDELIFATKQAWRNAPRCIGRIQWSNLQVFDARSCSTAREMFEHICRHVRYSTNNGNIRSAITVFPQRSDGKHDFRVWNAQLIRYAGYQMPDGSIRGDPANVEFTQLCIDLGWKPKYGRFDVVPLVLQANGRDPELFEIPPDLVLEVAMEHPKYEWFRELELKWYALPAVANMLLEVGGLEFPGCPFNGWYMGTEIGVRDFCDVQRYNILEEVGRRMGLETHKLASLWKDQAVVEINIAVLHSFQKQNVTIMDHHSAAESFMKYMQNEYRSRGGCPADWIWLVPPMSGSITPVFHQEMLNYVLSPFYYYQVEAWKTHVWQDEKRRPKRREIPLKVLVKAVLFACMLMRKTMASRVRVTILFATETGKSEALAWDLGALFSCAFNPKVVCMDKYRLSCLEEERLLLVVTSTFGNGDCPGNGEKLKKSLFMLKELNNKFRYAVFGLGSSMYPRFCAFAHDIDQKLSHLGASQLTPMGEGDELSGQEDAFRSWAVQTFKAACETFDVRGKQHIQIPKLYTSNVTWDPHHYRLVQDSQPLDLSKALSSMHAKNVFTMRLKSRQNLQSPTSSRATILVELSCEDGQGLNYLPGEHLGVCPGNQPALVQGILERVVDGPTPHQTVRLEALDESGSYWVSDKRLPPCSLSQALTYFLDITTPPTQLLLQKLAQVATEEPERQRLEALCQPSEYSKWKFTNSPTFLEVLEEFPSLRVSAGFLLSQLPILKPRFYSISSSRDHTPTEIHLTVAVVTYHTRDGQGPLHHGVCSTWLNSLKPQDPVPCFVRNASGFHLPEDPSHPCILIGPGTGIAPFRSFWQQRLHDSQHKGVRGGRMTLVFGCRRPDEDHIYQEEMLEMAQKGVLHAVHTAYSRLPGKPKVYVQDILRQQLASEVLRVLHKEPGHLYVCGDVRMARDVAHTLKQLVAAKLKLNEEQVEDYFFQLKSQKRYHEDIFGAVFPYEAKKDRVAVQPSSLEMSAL
# Chain of Nitric oxide synthase 1 (P29475 whole entry): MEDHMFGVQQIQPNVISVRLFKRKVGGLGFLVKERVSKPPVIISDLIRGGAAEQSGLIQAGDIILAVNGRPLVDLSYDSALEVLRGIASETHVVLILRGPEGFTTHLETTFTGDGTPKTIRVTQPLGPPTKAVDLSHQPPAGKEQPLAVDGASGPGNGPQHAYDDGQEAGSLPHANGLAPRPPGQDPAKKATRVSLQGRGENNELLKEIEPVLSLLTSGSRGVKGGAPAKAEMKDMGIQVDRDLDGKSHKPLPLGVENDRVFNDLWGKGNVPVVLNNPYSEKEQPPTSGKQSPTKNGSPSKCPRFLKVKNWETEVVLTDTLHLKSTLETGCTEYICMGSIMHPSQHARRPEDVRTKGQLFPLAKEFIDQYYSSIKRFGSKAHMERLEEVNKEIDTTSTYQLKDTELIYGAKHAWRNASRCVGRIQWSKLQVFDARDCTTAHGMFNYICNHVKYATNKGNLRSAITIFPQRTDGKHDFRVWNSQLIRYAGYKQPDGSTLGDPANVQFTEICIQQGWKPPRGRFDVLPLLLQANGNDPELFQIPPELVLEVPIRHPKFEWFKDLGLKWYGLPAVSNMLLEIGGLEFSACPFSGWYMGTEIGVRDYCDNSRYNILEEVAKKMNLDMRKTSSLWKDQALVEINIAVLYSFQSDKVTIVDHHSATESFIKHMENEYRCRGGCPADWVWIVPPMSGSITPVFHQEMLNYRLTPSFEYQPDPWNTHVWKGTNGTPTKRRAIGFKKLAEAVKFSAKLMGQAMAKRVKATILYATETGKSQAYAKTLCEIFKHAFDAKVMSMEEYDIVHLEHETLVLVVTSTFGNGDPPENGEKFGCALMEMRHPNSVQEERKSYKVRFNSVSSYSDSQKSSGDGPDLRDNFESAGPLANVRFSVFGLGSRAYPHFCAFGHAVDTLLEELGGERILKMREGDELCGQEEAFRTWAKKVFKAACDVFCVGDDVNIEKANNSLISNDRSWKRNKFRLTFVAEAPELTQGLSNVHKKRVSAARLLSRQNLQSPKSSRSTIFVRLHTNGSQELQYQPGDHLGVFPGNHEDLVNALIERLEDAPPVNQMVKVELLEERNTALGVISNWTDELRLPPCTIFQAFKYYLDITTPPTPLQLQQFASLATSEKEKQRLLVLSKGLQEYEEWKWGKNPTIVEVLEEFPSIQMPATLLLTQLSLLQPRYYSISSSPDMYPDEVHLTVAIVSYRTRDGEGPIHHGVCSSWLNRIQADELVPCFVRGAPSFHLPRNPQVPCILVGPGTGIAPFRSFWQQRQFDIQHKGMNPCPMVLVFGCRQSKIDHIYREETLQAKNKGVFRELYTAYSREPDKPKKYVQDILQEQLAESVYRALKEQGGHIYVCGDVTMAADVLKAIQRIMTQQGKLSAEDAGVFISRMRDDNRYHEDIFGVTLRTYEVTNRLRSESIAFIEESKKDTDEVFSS
SMILES,pIC50 [1],pIC50 [2],pIC50 [3],pIC50 [4]
CCCCC[C@@H]1N=C(N)[C@@H](O)[C@@H]1C,5.74,3.03,4.70,
CCCCC[C@H]1N=C(N)[C@H](O)[C@H]1C,5.74,3.16,5.05,
CCCCC[C@@H]1N=C(N)[C@H](O)[C@@H]1C,5.55,2.53,4.31,

# Other lines, results leading:
pIC50 [1],pIC50 [2],pIC50 [3],pIC50 [4],SMILES
5.35,,4.68,3.24,"CCCCC[C@H]1NC(=N)C[C@H]1C (single isomer, unassigned)"
6.11,,4.57,2.70,CCCCC[C@H]1NC(=N)[C@@H](O)[C@H]1C
6.60,,5.49,3.65,CCCCC[C@H]1NC(=N)C[C@H]1C
